Source: US10604742B2, “Adsorptive membranes for trapping viruses” (Wisconsin Alumni Research Foundation, priority 2006, dated 2020)
Like-named read-outs stand apart in the source and are kept apart here.

What was measured:
[1] = biological target: bovine serum albumin (BSA) (Bos taurus, UniProt P02769); assay: Function test 1: static BSA binding capacity of ligand-functionalized regenerated cellulose membranes (BCA method); conditions: 20 mM piperazine, pH 6.0
Procedure: These ligands were evaluated using two different function tests. In the first function test, bovine serum albumin (BSA) in 20 mM piperazine, pH 6.0, with and without added NaCl, was incubated with a functionalized regenerated cellulose membrane. Bound BSA was then measured using the bicinchoninic acid (BCA) colorimetric method. Function test 1 measured the static protein binding capacity of the membranes under conditions where the pH was close to the isoelectric point of the protein (pI of BSA=5.1). In this function test, the protein had only a weak charge and was sensitive to added salt. This first function test was designed to mimic the binding of a neutral virus where the charge is weak.
Each ligand was immobilized onto regenerated cellulose membranes having 0.45 μm pore diameter using allyl glycidyl ether. The allylated membrane was then brominated. Lastly the ligand was coupled to the membrane via the primary amine on the ligand.

neutral virus φX174 [2] = assay: Function test 2: LRV for φX174 using functionalized membranes in flow mode, TE buffer pH 7.5; format: binding, bacteriophage φX174; conditions: for φX174 LRV: TE buffer pH 7.5
Excerpt: In these examples, the neutral virus φX174 is used because is one of five model non-pathogenic bacteriophage viruses commonly used in filtration studies to represent the gamut of physical properties of potential adventitious viruses of danger to humans (e.g., size, pI, presence or absence of a membrane). In short, the φX174 virus is an art-recognized virus for modeling viral clearance of dangerous pathogens.
Function test 2 measured the LRV for the neutral virus φX174 using the functionalized membranes in flow mode with TE buffer (10 mM Tris, 1 mM EDTA, pH 7.5) with and without added NaCl. Each ligand was immobilized onto regenerated cellulose membranes having 0.45 μm pore diameter using allyl glycidyl ether. The allylated membrane was then brominated. Lastly the ligand was coupled to the membrane via the primary amine on the ligand.

[3] = cited from earlier work
[4] = high-salt buffer (23 mS/cm); cited from earlier work
neutral virus φX174 [5] = assay: Example 3: φX174 clearance by AGM membrane in presence of basic protein ribonuclease A (FIG. 10); format: binding, bacteriophage φX174; conditions: 0.5 g/L ribonuclease A, TE buffer pH 7.5, with and without added NaCl
Procedure: FIG. 10 is a graph depicting the performance of a virus-trapping membrane containing the immobilized ligand agmatine to remove a neutral virus (φX174) from a solution comprising a basic protein (0.5 g/L ribonuclease) and different concentrations of salt (□=0 mM NaCl; ▴=50 mM NaCl; ▪=150 mM NaCl).
AGM, for example, meets these requirements. […] According to the methods of Example 2, a disposable, micro-porous, regenerated-cellulose virus-trapping membrane was fabricated containing the ligand AGM immobilized on the membrane. The basic protein ribonuclease A (pI˜9.5) was used as a mAb surrogate. A feed solution comprising the neutral virus φX174 and 0.5 g/L of the basic protein ribonuclease A, both dissolved in TE buffer (10 mM Tris, 1 mM EDTA, pH 7.5), with and without added NaCl, was loaded into the membrane. Viral clearance was not reduced by the presence of the basic protein.

φX174 = conditions: cited from earlier work

Chain of bovine serum albumin (BSA) (P02769 25-607): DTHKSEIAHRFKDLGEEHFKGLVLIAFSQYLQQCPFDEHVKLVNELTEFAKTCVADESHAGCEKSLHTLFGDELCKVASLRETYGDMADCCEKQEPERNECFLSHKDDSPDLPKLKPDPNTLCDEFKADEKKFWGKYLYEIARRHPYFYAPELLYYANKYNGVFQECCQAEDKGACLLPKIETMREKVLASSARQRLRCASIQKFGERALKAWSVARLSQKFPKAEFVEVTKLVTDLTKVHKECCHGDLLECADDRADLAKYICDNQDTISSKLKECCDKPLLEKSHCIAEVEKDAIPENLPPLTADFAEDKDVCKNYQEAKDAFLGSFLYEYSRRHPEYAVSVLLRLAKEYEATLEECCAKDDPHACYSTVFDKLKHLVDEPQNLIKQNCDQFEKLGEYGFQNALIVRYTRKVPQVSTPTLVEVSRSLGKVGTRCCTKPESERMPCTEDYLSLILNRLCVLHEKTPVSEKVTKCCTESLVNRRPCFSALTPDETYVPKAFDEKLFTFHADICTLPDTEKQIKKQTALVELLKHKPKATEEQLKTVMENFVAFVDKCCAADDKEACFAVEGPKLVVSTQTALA

Row | Structure (SMILES) | BSA Static Capacity ([1]; 0 mM NaCl) [mg/m^2] | BSA Static Capacity ([1]; 50 mM NaCl) [mg/m^2] | BSA Static Capacity ([1]; 150 mM NaCl) [mg/m^2] | φX174 LRV (neutral virus φX174 [2]; 0 mM NaCl) | φX174 LRV (neutral virus φX174 [2]; 50 mM NaCl) | φX174 LRV (neutral virus φX174 [2]; 150 mM NaCl) | pKa [3] | charge at neutral pH [3] | dynamic binding capacity greater than the average of the five best non-aromatic anion-exchange ligands [4] [%] | dynamic binding capacity relative to the Q ligand [4] [times] | viral clearance (LRV) of φX174 after adding the basic protein (neutral virus φX174 [5]) | φX174 clearance (LRV) in the presence of salt (neutral virus φX174 [2]; in the presence of salt (50 and 150 mM)) | salt tolerance of viral clearance (neutral virus φX174 [2]; moderate salt concentration) | viral clearance of φX174 (LRV) (φX174; 0 mM salt) | viral clearance of φX174 (LRV) (φX174; 0 mM salt, listed as “MUSTANG”® Q-brand adsorptive ligand) | viral clearance of φX174 (LRV) (φX174; 50 mM salt) | viral clearance of φX174 (LRV) (φX174; 50 mM salt, listed as “MUSTANG”® Q-brand adsorptive ligand)
1 | N[C@H](CO)Cc1ccc(O)cc1 [TYR, Tyrosinol] | 638 | 284 | 137 | 6.4 | 2.7 | 0.9 | 10.8 | positively charged | 63 | 36 | – | – | – | – | – | – | –
2 | NCCN(CCN)CCN [TAEA, tris(2-aminoethyl)amine] | – | – | – | 7.6 | 5.8 | 5.1 | – | – | – | – | – | – | – | – | – | – | –
3 | N=C(N)NCCCCN [AGM, Agmatine] | 1000 | 319 | 116 | 5.5 | 5.5 | 5.9 | – | positive charge | – | – | ≈ 6.0 | – | – | – | – | – | –
4 | NCC(O)c1ccc(O)cc1 (stereo not shown) [OCT, Octopamine] | 280 | 290 | 250 | 5.4 | 1.1 | 0.7 | – | – | – | – | – | – | – | – | – | – | –
5 | Nc1nc2ccccc2[nH]1 [ABI, 2-aminobenzimidazole] | 414 | 204 | 108 | 5.4 | 1.8 | 1.0 | – | – | – | – | – | – | – | – | – | – | –
6 | N[C@H](CO)Cc1c[nH]c2ccccc12 [TRP, Tryptophanol] | 668 | 297 | 131 | 5.4 | 1.1 | 1.0 | – | – | – | – | – | – | – | – | – | – | –
7 | NCC(O)CN [DHP, 1,3-diamino-2-hydroxypropane] | 946 | 392 | 85 | 5.4 | 2.1 | 0.1 | – | – | – | – | – | – | – | – | – | – | –
8 | C[N+](C)(C)CCN.[Cl-] [AETMA, 2-aminoethyltrimethylammonium chloride, reference compound] | 551 | 42 | 10 | 6.6 | 0.1 | 0.1 | >12 | – | – | – | – | ≈ 0.1 | not salt tolerant | six | 6 | 1 | less than 1 LRV
9 | N[C@H](CO)Cc1ccccc1 [PHA, Phenylalaninol] | 330 | 46 | 10 | 2.8 | 0.1 | 0.0 | – | – | – | – | – | – | – | – | – | – | –
